Measurements: patent publication US4720494A, “Anticholinergic eucatropine esters and antiperspirant use thereof” (priority 1984, dated 1988)
Where “and” joins values, the source holds several entries; their conditions need not be identical. Equal values may be shown once.

Columns and labels:
[1] = system: sweating of mouse foot (pilocarpine-stimulated); experiment: Mouse foot antiperspirant assay; type: in vivo, ICR/CD-1 male albino mice; details: for antiperspirant potency relative to eucatropine (in words): DCC esters, compared with parent eucatropine; for EC50: s.c. 5 μL in foot pad, pilocarpine-stimulated sweating, average EC50
Description: For the dose-response determination, four or five groups of 10 ICR/CD-1 male albino mice weighing approximately 20 gm were used. The animals were anaesthetized with 0.20 mL of a 250 mg/mL solution of ethyl carbamate injected intraperitoneally. Anticholinergic test solutions using 0.9% aqueous sodium chloride were injected subcutaneously under the plantar foot pads of the right hind feet of 10 mice per concentration. The 26 gauge, 2 in. needle of a Hamilton 5 μL syringe was inserted at the rear of the plantar surface and threaded forward. The dose, 5 μL, was delivered subcutaneously near the interdigital foot pads. Subsequently, both hind feet were coated with a 1:1 suspension of soluble starch in 2% ethanolic iodine-castor oil.
At 5 minutes after test solution injection, sweating was stimulated by injecting each animal intraperitoneally with 0.20 mL of 1 mg/mL pilocarpine.HCl in 0.9% aqueous sodium chloride. The appearance of blue-black spots within five minutes after stimulation by pilocarpine was the criterion for sweating. The criterion for the animals responding to the anticholinergic was absence of sweating on two or more tubercles of the treated foot. A 7X magnifying glass was used to enlarge the foot for evaluation.
As many concentrations were tested as needed to obtain two points with more than 50% but less than 100% of the animals responding and two points with less than 50% but more than 0% of the animals responding.
For some esters it was necessary to alter the concentration interval to obtain the appropriate spread of responses in a minimum of trials. […] Each compound was run at least twice. The average EC50 was used for comparison with other anticholinergics.

[2] = system: pupil light reflex of rabbit eye; experiment: Rabbit abolition of light reflex assay (RALR), mydriasis
Text: In order to determine the potential for mydriasis produced by the anticholinergic antiperspirant compositions of our invention, the rabbit abolition of light reflex assay was employed. In this assay, solutions of test compounds are instilled in the eyes of rabbits and response to light stimulus followed as a function of time.
The test animals used were female, New Zealand albino rabbits which were 12 to 14 weeks old when first used for testing. A test group consisted of fifteen animals and could be used 8 to 10 weeks before the rabbits became too large to handle.
Prior to the first use of a rabbit group, a determination of the responsiveness of each pupil to a light stimulus was determined. Under room illumination provided by fluorescent tubes, the bilateral symmetry of the pupil light reflex was ascertained by directing a beam of light from a penlight-type of flashlight into each pupil. If proper response was present, the animals were subsequently used.
The mydriatic response to an anticholinergic was determined in the following manner. The animals were held in wooden restrainer boxes during the test. The distance between the mid-sagittal plane of one animal and that of the immediately adjacent animal was 11 inches. Into one conjunctival sac of each animal was installed 0.1 mL of a given concentration of the compound under test in 0.9% sodium chloride. […] Thus, for eucatropine derivatives, solutions were prepared to correspond to one percent eucatropine.HCl. After installation of the solution, the lids of the treated eye were held closed for one minute to prevent the loss of the test dose. After this time the lids were held open by gentle finger pressure, and the cornea and conjunctival sac irrigated with one mL of 0.9% aqueous sodium chloride applied in drops from a 10 mL syringe. The procedure was repeated in the other eye using 0.1 mL 0.9% saline as a control. Each rabbit was treated at two to three minutes following the preceding rabbit.
Observation of the rabbit eye pupil size was made at 30, 60 and 120 minutes after treatment by directing a penlight beam into each pupil. The response of both pupils to light was observed. Any degree of contraction of the pupil of the treated eye which was obviously less than that of the untreated eye was recorded as incomplete (partial) inhibition of the reflex. Failure of the pupil of the treated eye to contract in response to light was recorded as complete inhibition of the reflex. The responses of each rabbit were recorded. Both partial and complete inhibition were recorded as inhibited. The animals were not used again for at least 72 hours and the same eye was not used for treatment by test solutions in successive experiments.

[3] = esters synthesized by DCC method
[4] = esters synthesized by DCC method, fraction of animals with inhibition at 60 min, 1% solutions based on eucatropine
[5] = esters synthesized via acid chloride
[6] = esters synthesized via acid chloride, fraction of animals with inhibition at 60 min, 1% solutions based on eucatropine

Compound | EC50 [1, 3] | RALR (60 min.) ([2]; rabbit, in vivo) | antiperspirant potency relative to eucatropine (in words) [1] | RALR (60 min.) [2, 4] | also measured
CC1CC(OC(=O)C(OC(=O)c2cnc3ccccc3c2)c2ccccc2)CC(C)(C)N1C.Cl (centres unmarked) | 10 mM |  | a reduction in EC50 over eucatropine | 0.73 | mydriasis in the rabbit eye (in words) ([2]; compared with eucatropine): reduced mydriasis
CC1CC(OC(=O)C(OC(=O)c2ccc(N(C)C)cc2)c2ccccc2)CC(C)(C)N1C.Cl (centres unmarked) | 25 mM |  |  | 0.27 | 
CC1CC(OC(=O)C(OC(=O)c2ccnc3ccccc23)c2ccccc2)CC(C)(C)N1C.Cl (centres unmarked) |  |  | a reduction in EC50 over eucatropine | 0.60 | mydriasis in the rabbit eye (in words) ([2]; compared with eucatropine): reduced mydriasis
CC1CC(OC(=O)C(OC(=O)C2CCCCC2)c2ccccc2)CC(C)(C)N1C.Cl (centres unmarked) | 41 mM |  |  |  | EC50 [1, 5]: 43 mM
CC1CC(OC(=O)C(OC(=O)CC2CCCCC2)c2ccccc2)CC(C)(C)N1C.Cl (centres unmarked) | 87 mM | 0.67 |  |  | 
CC1CC(OC(=O)C(OC(=O)CC2CCCC2)c2ccccc2)CC(C)(C)N1C.Cl (centres unmarked) | 67 mM | 1.00 |  |  | 
O=C(O)C1CCCC1 [Cyclopentanecarboxylate] | 78 mM | 0.67 |  |  | 
CC(C)C(=O)O [Isobutyrate] | 1.6 mM | 0.88 |  |  | 
CC1CC(OC(=O)C(OC(=O)c2cccnc2)c2ccccc2)CC(C)(C)N1C.Cl (centres unmarked) [Nicotinate] | 6.5 mM |  | only a slight decrease in antiperspirant potency relative to eucatropine | 0.60 | 
CCCCCCCC(=O)OC(C(=O)OC1CC(C)N(C)C(C)(C)C1)c1ccccc1.Cl (centres unmarked) [Octanoate] | 11 mM |  |  | 0.93 | EC50 [1, 5]: 9.6 mM; RALR (60 min.) [2, 6]: 0.50
Benzoate | 0.3 mM |  | more potent than eucatropine | 0.88 and 0.87 | EC50 [1, 5]: 25 mM; RALR (60 min.) [2, 6]: 0.20
Phenylacetate | 5.3 mM |  | equalled or nearly equalled that of the parent eucatropine | 1.00 | EC50 [1, 5]: 78 mM; RALR (60 min.) [2, 6]: 0.47

Continued, in another order:

EC50 [1, 3] | RALR (60 min.) ([2]; rabbit, in vivo) | Compound | antiperspirant potency relative to eucatropine (in words) [1] | RALR (60 min.) [2, 4] | also measured
11 mM | 0.80 | CC1CC(OC(=O)C(OC(=O)c2cnccn2)c2ccccc2)CC(C)(C)N1C.Cl (centres unmarked) | a reduction in EC50 over eucatropine |  | mydriasis in the rabbit eye (in words) ([2]; rabbit, in vivo): reduced mydriasis
18 mM | 1.00 | CC1CC(OC(=O)C(OC(=O)C2CCC2)c2ccccc2)CC(C)(C)N1C.Cl (centres unmarked) |  |  | 
4.7 mM and 4.8 mM | 1.00 | CC1CC(OC(=O)C(OC(=O)C2CC2)c2ccccc2)CC(C)(C)N1C.Cl (centres unmarked) |  |  | EC50 [1, 5]: 36 mM
5.2 mM | 0.00 | CC1CC(OC(=O)C(OC(=O)c2ccncc2)c2ccccc2)CC(C)(C)N1C.Cl (centres unmarked) | only a slight decrease in antiperspirant potency relative to eucatropine |  | mydriasis in the rabbit eye (in words) ([2]; rabbit, in vivo): no mydriasis
2 mM | 0.40 | CC1CC(OC(=O)C(OC(=O)c2ccccn2)c2ccccc2)CC(C)(C)N1C.Cl (centres unmarked) | only a slight decrease in antiperspirant potency relative to eucatropine |  | 
1.4 mM |  | CC1CC(OC(=O)C(OC(=O)C(Cl)c2ccccc2)c2ccccc2)CC(C)(C)N1C.Cl (centres unmarked) | equalled or nearly equalled that of the parent eucatropine |  | 
16 mM |  | COc1ccc(C(=O)OC(C(=O)OC2CC(C)N(C)C(C)(C)C2)c2ccccc2)cc1.Cl (centres unmarked) |  |  | 
 | 1.00 | CC1CC(OC(=O)C(O)c2ccccc2)CC(C)(C)N1C (centres unmarked) [H, eucatropine] |  |  | EC50 ([1]; Mus musculus, sc, parent eucatropine (ester group H)): 7.2 mM; incomplete response (light reflex) in rabbits at 60 minutes ([2]; rabbit, in vivo): eight out of eight
84 mM |  | Cc1ccc(C(=O)OC(C(=O)OC2CC(C)N(C)C(C)(C)C2)c2ccccc2)cc1.Cl (centres unmarked) [p-Toluate] |  |  | 
